Here are results for 8 molecules from patent publication US10174032B2, “Heterocyclic compound classes for signaling modulation” (SignalRx Pharmaceuticals, Inc., priority 2014, dated 2019).

The target in assay [1] is BRD4 (Homo sapiens, UniProt O60885). Kind of assay: BRD4 inhibition assay of CAL101. Format: binding. Particulars: no significant BRD4 inhibition.
For assay [2], the system named is PC3 cells. Kind of assay: PC3 cell proliferation (WST, 72 hours). Format: cell-based. Conditions: Homo sapiens, PC-3; PC3 cells, 72 hours, WST; read-out: PC3 cell proliferation(IC50 μM). The method, then: The PC3 cell proliferation data in column 26 of Table 5 was obtained as follows: PC3 cells were obtained from the American Type Culture Collection (ATCC, Manassas, Va., Cat.#CRL-1435). Two thousand cells from the prostate cancer line PC3 were placed in 50 μL of complete RPMI 1640 media (Invitrogen, Carlsbad, Calif., Cat.#22400-105) with 10% fetal bovine serum, (Invitrogen, Carlsbad, Calif., Cat.#10438-026) into each well of 96-well cell culture plates in a hexaplicate sampling pattern. A 50 μL aliquot of test compound (prepared from stock test compounds in DMSO diluted into media) was added to the appropriate well such that the final concentrations of test compound were 200, 40, 8, 1.6, 0.32, 0.064, 0.0128, 0.00256, and 0 μM and the final DMSO concentration was less than or equal to 0.2% . The plates were incubated for 72 hours 37° C. in an atmosphere of 5% CO2. At the end of this time a 10 μL aliquot of WST solution (Roche Applied Science, Mannheim, Germany) was added into each of the wells. Cells were exposed to the WST solution for 4 hours. A SpectraMax Plus spectrophotometric plate reader (Molecular Devices, Sunnydale, Calif.) was then used to measure the optical density at 450 nm (OD450 nm). Sigmoidal curves were drawn for the dose responses and IC50 values were calculated using the software package GraphPad Prism4 (GraphPad Software, Inc., San Diego, Calif.).

In assay [3] the target is PI3K-alpha (Homo sapiens, UniProt P42336). Kind of assay: Kinase inhibition assay, P-33 labelled ATP phosphate transfer, PI3K-alpha. Format: biochemical. Conditions: for inhibition at 0.3 µM: read-out: PI3K-alpha (% Inh at 300 nM). The procedure:
(§1) The assays determined the amount of radioactive phosphate transferred from P-33 labelled ATP to the substrate by the enzyme in the presence of various concentrations of the inhibitor test compounds. […] After this time period the cells were serum starved for 5 hours followed by application of the test compound. Test compound was added as a DMSO (dimethyl sulfoxide) solution such that the final DMSO concentration in the cell media was less than or equal to 0.2% by volume. After 30 minutes of exposure the growth factor stimulant, human IGF-1 (Pepro Tech, Inc., Rocky Hill, N.J., Cat.#100-11), was added in each well. […] A SpectraMax Plus spectrophotometric plate reader (Molecular Devices, Sunnydale, Calif.) was used to measure the optical density signal for pAKT at 450 nm (OD450 nm). The pAKT OD450 nm readings were normalized by total protein amount in the cell lysates determined by standard methods. Concentrations of test compounds required to inhibit IGF stimulated pAKT levels to 50% of maximum levels in PC3 cells (termed DM50 for decreased maximum 50%) were calculated by inputting the dose responses in the software package GraphPad Prism4 (GraphPad Software, Inc., San Diego, Calif.).

Assay [4] concerns the target PI3K-gamma (Homo sapiens, UniProt P48736). Kind of assay: Kinase inhibition assay, P-33 labelled ATP phosphate transfer, PI3K-gamma. Format: biochemical. Particulars: for inhibition at 10 µM: read-out: PI3K-gamma(% Inh at 10 μM). The procedure:
as §1

The target of assay [5] is mTOR (Homo sapiens, UniProt P42345). The assay is described as follows: Kinase inhibition assay, P-33 labelled ATP phosphate transfer, mTOR. Format: biochemical. Particulars: for inhibition at 0.3 µM: read-out: mTOR(% Inh at 300 nM); for inhibition at 10 µM: read-out: mTOR(% Inh at 10 μM). The procedure:
as §1

The target in assay [6] is PI3K-delta (Homo sapiens, UniProt O00329). The assay is described as follows: Kinase inhibition assay, P-33 labelled ATP phosphate transfer, PI3K-delta. The class given is biochemical. Particulars: for inhibition at 10 µM: read-out: PI3K-delta(% Inh at 10 μM). The procedure: as §1
For assay [7], the target named is PLK-1 (Homo sapiens, UniProt P53350). Kind of assay: Kinase inhibition assay, P-33 labelled ATP phosphate transfer, PLK-1. Format: biochemical. The method, then:
as §1

In assay [8] the target is PI3K-beta (Homo sapiens, UniProt P42338). The assay is described as follows: Kinase inhibition assay, P-33 labelled ATP phosphate transfer, PI3K-beta. Format: biochemical. Particulars: for inhibition at 10 µM: read-out: PI3K-beta(% Inh at 10 μM). The procedure: as §1
Assay [9] concerns pAKT serine 473 in PC3 cells. Kind of assay: IGF-1 stimulated pAKT serine 473 level in PC3 cells (sandwich ELISA). The class given is cell-based. Conditions: Homo sapiens, PC-3, 0.5 h, 30 minutes compound exposure, termed DM50 in text. The method, then:
as §1
A general note: ELISA stands for enzyme-linked immunosorbent assay.

The target of assay [10] is PIM-1 (Homo sapiens, UniProt P11309). The assay is described as follows: Kinase inhibition assay, P-33 labelled ATP phosphate transfer, PIM-1. Particulars: for inhibition at 10 µM: read-out: PIM-1(% Inh at 10 μM). The class given is biochemical. The method, then: as §1
Assay [11] deals with DNA-PK (Homo sapiens, UniProt P78527). The assay is described as follows: Kinase inhibition assay, P-33 labelled ATP phosphate transfer, DNA-PK. Format: biochemical. The procedure:
as §1

Assay [12] concerns PI-3 kinases. Conditions: cited from earlier work.
In assay [13] the target is BET protein BRD4-1 (Homo sapiens, UniProt O60885). Conditions: S W J Ember 2014; cited from earlier work.

Structures are written as SMILES. Some results are limits rather than exact numbers.

PI3K-delta, sequence (O00329 whole entry, species assumed): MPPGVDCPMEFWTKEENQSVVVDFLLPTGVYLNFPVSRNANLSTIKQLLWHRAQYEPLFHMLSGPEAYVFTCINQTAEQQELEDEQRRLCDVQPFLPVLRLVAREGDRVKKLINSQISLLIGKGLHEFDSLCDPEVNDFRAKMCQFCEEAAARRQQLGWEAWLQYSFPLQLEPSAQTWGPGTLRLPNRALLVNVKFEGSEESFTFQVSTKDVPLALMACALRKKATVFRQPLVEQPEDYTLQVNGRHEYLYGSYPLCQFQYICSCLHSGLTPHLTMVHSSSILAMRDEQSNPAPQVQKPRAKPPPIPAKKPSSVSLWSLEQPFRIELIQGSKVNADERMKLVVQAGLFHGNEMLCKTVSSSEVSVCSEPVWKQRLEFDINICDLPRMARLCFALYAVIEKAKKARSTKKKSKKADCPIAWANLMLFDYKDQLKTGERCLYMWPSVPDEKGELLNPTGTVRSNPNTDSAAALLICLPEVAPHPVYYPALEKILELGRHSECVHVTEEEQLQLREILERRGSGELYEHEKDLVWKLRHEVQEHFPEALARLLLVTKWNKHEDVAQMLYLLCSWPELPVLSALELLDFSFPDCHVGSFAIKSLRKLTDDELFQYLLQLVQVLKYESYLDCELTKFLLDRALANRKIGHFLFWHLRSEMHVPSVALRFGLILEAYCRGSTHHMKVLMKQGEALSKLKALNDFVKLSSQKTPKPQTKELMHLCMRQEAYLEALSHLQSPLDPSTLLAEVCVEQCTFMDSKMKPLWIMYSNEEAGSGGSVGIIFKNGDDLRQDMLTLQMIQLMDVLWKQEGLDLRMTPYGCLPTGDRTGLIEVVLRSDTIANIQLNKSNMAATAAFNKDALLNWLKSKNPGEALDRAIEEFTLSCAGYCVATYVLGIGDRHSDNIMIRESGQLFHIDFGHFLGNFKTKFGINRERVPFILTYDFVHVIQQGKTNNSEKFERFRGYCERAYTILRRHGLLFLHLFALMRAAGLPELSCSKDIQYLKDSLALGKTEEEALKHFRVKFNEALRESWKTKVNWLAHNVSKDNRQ
PI3K-delta, sequence (P27986 whole entry partner, species assumed): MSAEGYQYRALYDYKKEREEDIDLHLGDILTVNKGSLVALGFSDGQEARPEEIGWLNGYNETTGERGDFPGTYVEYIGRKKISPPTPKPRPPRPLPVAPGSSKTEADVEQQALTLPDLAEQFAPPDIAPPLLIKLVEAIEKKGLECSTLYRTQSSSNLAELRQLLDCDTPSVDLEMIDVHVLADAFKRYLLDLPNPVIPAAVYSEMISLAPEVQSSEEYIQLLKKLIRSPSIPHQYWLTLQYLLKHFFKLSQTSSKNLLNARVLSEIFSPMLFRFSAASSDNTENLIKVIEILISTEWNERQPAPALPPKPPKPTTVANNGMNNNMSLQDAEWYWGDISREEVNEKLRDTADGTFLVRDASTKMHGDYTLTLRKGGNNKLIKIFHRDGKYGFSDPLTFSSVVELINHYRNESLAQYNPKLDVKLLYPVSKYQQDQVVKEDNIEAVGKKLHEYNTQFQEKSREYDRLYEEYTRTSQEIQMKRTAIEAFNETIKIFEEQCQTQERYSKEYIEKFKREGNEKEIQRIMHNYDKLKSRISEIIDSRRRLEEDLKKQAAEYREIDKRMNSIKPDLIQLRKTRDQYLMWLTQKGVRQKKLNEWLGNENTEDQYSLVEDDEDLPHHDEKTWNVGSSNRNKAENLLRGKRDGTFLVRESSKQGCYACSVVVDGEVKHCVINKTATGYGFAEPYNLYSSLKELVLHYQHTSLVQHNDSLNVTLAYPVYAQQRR
PI3K-gamma, sequence (P48736 whole entry, species assumed): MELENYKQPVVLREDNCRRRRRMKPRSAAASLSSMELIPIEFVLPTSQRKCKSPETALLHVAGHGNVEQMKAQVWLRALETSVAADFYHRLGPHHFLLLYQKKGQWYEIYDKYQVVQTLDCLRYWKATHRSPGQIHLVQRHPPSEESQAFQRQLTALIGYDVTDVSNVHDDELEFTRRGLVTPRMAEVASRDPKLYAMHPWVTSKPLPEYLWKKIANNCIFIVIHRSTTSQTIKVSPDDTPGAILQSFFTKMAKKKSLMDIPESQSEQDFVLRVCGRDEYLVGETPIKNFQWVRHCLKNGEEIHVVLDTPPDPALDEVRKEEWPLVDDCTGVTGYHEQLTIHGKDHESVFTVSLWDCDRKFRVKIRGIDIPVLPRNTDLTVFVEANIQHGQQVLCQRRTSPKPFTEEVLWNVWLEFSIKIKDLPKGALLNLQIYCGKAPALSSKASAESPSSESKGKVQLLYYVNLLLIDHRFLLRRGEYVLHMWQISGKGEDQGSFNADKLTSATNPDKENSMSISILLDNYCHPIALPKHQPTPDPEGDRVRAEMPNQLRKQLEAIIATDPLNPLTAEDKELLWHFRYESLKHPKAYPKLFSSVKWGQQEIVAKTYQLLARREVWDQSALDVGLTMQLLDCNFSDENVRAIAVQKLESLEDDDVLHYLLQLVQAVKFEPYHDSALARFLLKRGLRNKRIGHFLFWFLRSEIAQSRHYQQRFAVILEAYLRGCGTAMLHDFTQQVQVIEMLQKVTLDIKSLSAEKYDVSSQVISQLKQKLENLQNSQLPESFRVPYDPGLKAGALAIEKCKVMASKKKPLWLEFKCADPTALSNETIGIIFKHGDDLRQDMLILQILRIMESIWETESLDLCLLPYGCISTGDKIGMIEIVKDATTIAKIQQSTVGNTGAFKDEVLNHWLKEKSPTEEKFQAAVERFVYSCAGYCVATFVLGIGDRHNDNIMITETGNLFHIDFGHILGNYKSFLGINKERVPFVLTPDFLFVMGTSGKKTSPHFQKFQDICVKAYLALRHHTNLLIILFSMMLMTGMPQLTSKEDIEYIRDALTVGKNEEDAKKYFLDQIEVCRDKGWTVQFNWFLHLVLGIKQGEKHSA
PI3K-alpha, sequence (P42336 whole entry, species assumed): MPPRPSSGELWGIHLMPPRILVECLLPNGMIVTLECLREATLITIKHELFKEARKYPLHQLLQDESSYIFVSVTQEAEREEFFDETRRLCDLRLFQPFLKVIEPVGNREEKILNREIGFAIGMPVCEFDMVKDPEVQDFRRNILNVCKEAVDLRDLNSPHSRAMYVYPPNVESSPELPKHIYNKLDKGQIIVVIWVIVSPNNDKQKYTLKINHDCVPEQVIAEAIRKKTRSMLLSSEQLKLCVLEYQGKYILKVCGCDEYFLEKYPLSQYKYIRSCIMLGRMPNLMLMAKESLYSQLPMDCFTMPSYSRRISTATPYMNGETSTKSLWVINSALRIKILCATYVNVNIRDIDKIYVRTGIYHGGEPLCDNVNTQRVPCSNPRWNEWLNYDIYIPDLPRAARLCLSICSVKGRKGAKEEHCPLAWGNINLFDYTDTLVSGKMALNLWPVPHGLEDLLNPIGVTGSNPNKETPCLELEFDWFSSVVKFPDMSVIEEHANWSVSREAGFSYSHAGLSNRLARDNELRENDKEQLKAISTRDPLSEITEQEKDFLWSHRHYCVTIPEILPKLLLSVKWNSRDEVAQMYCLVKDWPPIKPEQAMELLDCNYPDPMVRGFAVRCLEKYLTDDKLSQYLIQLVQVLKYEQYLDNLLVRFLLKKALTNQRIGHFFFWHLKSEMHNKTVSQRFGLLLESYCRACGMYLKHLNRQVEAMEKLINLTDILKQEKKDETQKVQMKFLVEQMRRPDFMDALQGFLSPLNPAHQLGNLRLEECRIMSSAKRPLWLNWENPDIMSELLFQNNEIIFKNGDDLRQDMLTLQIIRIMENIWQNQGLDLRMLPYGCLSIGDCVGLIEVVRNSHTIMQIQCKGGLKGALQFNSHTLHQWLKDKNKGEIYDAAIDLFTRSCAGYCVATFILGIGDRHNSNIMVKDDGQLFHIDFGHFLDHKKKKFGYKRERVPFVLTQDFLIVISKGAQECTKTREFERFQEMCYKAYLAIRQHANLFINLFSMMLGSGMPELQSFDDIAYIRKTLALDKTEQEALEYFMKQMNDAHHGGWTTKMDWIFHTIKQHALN
PI3K-alpha, sequence (P27986 whole entry partner, species assumed): as the sequence (P27986 whole entry partner, species assumed) above
PIM-1, sequence (P11309 whole entry, species assumed): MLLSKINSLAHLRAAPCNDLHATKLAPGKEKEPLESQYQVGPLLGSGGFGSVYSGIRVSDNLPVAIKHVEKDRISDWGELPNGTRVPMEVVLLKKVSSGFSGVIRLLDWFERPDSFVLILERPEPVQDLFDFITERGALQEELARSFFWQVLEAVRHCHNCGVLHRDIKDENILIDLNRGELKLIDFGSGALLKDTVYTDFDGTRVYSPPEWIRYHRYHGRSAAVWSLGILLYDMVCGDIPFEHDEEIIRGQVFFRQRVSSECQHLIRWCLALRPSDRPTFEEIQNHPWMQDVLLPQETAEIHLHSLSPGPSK
PLK-1, sequence (P53350 whole entry, species assumed): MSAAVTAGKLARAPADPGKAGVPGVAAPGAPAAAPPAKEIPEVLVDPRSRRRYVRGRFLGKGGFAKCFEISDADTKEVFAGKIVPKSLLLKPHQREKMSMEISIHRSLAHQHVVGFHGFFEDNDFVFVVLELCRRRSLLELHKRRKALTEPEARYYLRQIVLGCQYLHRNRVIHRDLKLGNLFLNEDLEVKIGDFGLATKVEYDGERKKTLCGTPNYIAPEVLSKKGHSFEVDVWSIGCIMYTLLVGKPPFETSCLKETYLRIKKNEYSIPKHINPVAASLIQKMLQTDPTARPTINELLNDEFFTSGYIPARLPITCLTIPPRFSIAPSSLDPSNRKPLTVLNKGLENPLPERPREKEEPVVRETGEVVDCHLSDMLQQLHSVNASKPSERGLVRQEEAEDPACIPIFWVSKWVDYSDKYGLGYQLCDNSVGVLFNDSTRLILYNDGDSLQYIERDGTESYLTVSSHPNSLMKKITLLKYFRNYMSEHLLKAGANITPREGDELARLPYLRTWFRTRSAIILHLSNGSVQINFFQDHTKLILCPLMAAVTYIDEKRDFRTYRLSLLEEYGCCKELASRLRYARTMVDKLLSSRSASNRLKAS

Molecule `CC[C@H](Nc1ncnc2[nH]cnc12)c1nc2cccc(F)c2c(=O)n1-c1ccccc1` [CAL101] came in with an IC50 in [1] above 50 µM.

Take `O=c1nc(N2CCOCC2)oc2c(-c3ccccc3)csc12` [Compound 3, 2-morpholino-7-phenyl-4H-thieno[2,3-e][1,3]oxazin-4-one]: the IC50 is 28 µM in assay [2]; 1.4 µM in assay [3]; 5.5 µM in assay [4]; 1.5 µM in [6]; 2.3 µM in assay [7]; 10 µM in [8]. This molecule gave an IC50 in assay [9] of 11 µM. Moreover, in assay [5], the inhibition at 0.3 µM stood at 4%.

In the case of `O=c1nc(N2CCOCC2)[nH]c2c1cnn2-c1ccccc1` [Compound 22], the IC50 in [2] was found to be 263 µM. Besides, the results for the inhibition at 0.3 µM in [3] and in [5] were 14% and 42%, respectively. The results for the inhibition at 10 µM in assay [4], in [6] and in assay [10] were 8%, 20% and 45%, respectively.

Consider `CCOC(=O)Cn1ncc2c(=O)nc(N3CCOCC3)[nH]c21` [Compound 24], for which the IC50 is 1.4 µM in [2] and 24 µM in [11]. In assay [3], the inhibition at 0.3 µM is 6.6%. The inhibition at 10 µM is 14% in assay [4]; 0% in [5]; 7.2% in assay [6]; 0.9% in assay [10]; 7.5% in assay [7] (read-out: PLK-1(% Inh at 10 μM)); 22% in assay [8].

Consider `O=c1nc(N2CCOCC2)[nH]c2c1cnn2-c1ccc2c(c1)OCCO2` [Compound 27], for which the IC50 came out at 149 µM in assay [2], 24 µM in assay [11] and 1 µM in [10]. Also, the inhibition at 0.3 µM in assay [3] was 30%. In addition, the inhibition at 10 µM in assay [4] amounted to 48%; in [5] it was 4.4%; in assay [6], 50%; in assay [8], 12%.

On to `O=c1cc(N2CCOCC2)oc2c(-c3ccccc3)cccc12` [LY294002, 2-(4-morpholinyl)-8-phenyl-4H-1-benzopyran-4-one], for which, in assay [12] (C. J. Vlahos et al. 1994), the IC50 was 1.4 µM.

As for `O=c1cc(N2CCNCC2)oc2c(-c3ccccc3)cccc12` [LY303511], in [12] (C. Vlahos et al. 1994), the PI3K inhibition activity entry is “lose all PI3K inhibition activity”.

`Cc1cnc(Nc2ccc(N3CCN(C)CC3)cc2)nc1Nc1cccc(S(=O)(=O)NC(C)(C)C)c1` [TG101209]: the “inhibition of BET protein BRD4-1” value in [13] is reported as “potently inhibit”.
